Measurements as given in paper PMC7321161, “The Intriguing Effects of Substituents in the N-Phenethyl Moiety of Norhydromorphone: A Bifunctional Opioid from a Set of “Tail Wags Dog” Experiments” (Molecules, 2020).
Values joined by “and” are separate entries in the source; they are usually repeats but may differ in a detail not shown here. Equal values may be shown once.

What was measured:
μ-opioid receptor (MOR) = target: T1, μ-opioid receptor (MOR) (Rattus norvegicus, UniProt P33535); experiment: Opioid receptor binding, μ sites ([3H]DAMGO), rat brain homogenate
T1 construct: Frozen whole rat brains excluding cerebellum were thawed on ice; from tissue; host or cells: whole rat brain excluding cerebellum, membrane homogenate

δ-opioid receptor (DOR) = target: T2, δ-opioid receptor (DOR) (Rattus norvegicus, UniProt P33533); experiment: Opioid receptor binding, δ sites ([3H]DADLE), rat brain homogenate
T2 construct: Frozen whole rat brains excluding cerebellum were thawed on ice; from tissue; host or cells: whole rat brain excluding cerebellum, membrane homogenate

κ-opioid receptor (KOR) = target: T3, κ-opioid receptor (KOR) (Rattus norvegicus, UniProt P34975); experiment: Opioid receptor binding, κ sites ([3H]U69,593), rat brain homogenate; conditions: for Ki: KOR Binding (Ki), whole rat brain excluding cerebellum, [3H]U69,593, Ki ± SEM
T3 construct: Frozen whole rat brains excluding cerebellum were thawed on ice; from tissue; host or cells: whole rat brain excluding cerebellum, membrane homogenate

rat MOR = target: T4, rat MOR (Rattus norvegicus, UniProt P33535); experiment: Stimulation of [35S]GTPγS binding, C6 glioma cell membranes expressing MOR; format: biochemical; conditions: for MOR % Stimulation, [35S]GTPγS: compared to standard maximal DAMGO; for MOR EC50, [35S]GTPγS: C6 cells expressing MOR, mean ± SEM, DNS = no stimulation; for MOR activity type in the [35S]GTPγS assay: antagonist activity assumed from high MOR affinity and lack of stimulation
T4 construct: expressed in transfected cells; host or cells: C6 rat glioma cells, stably transfected; membranes

[1] = target: T5, human μ-opioid receptor (OPRM1) (Homo sapiens, UniProt P35372); experiment: cell-based; conditions: for EC50: MOR cAMP Agonist Potency ± SEM; for Emax: OPRM1, read-out: MOR cAMP % Efficacy
T5 construct: host or cells: HitHunter CHO-K1 cells

[2] = target: T6, human δ-receptor (OPRMD1) (Homo sapiens, UniProt P41143); experiment: cell-based; format: cell-based; conditions: for Emax: CHO-K1, read-out: DOR cAMP % Efficacy; for EC50: DOR cAMP Agonist Potency ± SEM
T6 construct: host or cells: HitHunter CHO-K1 cells

[3] = target: T7, human κ-opioid receptor (OPRK1) (Homo sapiens, UniProt P41145); experiment: cell-based; conditions: for Emax: CHO-K1, read-out: KOR cAMP % Efficacy; for EC50: KOR cAMP Agonist Potency ± SEM
T7 construct: host or cells: HitHunter CHO-K1 cells

[4] = target: T8, human μ-opioid receptor β-arrestin-2 (Homo sapiens, UniProt P35372); experiment: cell-based; conditions: for Emax: read-out: MOR Mediated β-arrestin Recruitment (% Control, Emax DAMGO)
T8 construct: enzyme fragment for EFC (β-galactosidase ProLink fragment, by own knowledge of the PathHunter system); host or cells: PathHunter CHO cells

human KOR = target: T9, human KOR (Homo sapiens, UniProt P41145); experiment: Stimulation of [35S]GTPγS binding, CHO cell membranes expressing KOR; format: biochemical; conditions: for KOR % Stimulation, [35S]GTPγS: compared to standard maximal U69593; for KOR EC50, [35S]GTPγS: CHO cells expressing KOR, mean ± SEM, DNS = no stimulation
T9 construct: expressed in transfected cells; membranes

rat DOR = target: T10, rat DOR (Rattus norvegicus, UniProt P33533); experiment: Stimulation of [35S]GTPγS binding, C6 glioma cell membranes expressing DOR; format: biochemical; conditions: for EC50: DOR EC50, [35S]GTPγS, C6 cells expressing DOR, mean ± SEM; for DOR % Stimulation, [35S]GTPγS: compared to standard maximal DPDPE
T10 construct: expressed in transfected cells; host or cells: C6 rat glioma cells, stably transfected; membranes
T10 sequence (P33533 whole entry): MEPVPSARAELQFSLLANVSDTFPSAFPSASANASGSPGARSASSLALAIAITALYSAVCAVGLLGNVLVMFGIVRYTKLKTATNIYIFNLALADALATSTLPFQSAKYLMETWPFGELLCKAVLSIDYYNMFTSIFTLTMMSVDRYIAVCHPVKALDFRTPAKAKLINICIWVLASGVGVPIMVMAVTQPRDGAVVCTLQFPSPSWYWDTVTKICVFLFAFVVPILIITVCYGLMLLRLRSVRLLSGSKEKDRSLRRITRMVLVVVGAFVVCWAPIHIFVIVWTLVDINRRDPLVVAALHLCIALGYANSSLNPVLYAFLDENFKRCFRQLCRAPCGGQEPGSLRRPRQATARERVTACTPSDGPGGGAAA

T3 sequence (P34975 whole entry): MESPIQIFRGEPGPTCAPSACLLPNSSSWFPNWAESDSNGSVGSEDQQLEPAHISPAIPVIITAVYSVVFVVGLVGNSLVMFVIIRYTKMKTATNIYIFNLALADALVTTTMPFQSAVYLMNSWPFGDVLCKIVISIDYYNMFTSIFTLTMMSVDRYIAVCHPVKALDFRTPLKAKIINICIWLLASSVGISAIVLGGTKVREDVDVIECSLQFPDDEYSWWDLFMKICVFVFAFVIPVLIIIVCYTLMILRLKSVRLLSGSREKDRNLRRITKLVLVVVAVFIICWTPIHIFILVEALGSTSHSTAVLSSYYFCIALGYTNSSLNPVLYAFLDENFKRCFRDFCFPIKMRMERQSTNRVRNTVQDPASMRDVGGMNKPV
T7 sequence (P41145 whole entry): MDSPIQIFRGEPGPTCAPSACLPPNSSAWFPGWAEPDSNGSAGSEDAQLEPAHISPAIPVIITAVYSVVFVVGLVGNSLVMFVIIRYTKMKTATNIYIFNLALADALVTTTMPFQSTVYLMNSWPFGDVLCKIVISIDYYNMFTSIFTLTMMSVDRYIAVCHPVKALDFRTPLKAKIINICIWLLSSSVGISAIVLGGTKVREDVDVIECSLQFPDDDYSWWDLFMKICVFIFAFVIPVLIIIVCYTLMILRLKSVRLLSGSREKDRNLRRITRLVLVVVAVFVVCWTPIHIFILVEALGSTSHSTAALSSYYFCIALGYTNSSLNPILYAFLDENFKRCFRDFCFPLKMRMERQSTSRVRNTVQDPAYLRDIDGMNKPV
T9 sequence (P41145 whole entry): as above
T2 sequence (P33533 whole entry): as the sequence (P33533 whole entry) above
T4 sequence (P33535 whole entry): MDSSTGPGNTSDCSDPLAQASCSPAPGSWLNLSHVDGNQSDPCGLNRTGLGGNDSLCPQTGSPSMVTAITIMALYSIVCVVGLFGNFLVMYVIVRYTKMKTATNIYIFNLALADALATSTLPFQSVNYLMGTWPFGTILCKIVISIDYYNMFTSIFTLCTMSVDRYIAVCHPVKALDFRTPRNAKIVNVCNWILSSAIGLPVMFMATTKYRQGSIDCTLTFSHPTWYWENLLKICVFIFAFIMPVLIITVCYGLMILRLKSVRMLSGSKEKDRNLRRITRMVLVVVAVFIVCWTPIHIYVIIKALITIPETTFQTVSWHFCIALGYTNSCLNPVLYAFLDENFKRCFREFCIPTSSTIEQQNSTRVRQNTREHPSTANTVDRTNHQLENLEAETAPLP
T1 sequence (P33535 whole entry): as above
T6 sequence (P41143 whole entry): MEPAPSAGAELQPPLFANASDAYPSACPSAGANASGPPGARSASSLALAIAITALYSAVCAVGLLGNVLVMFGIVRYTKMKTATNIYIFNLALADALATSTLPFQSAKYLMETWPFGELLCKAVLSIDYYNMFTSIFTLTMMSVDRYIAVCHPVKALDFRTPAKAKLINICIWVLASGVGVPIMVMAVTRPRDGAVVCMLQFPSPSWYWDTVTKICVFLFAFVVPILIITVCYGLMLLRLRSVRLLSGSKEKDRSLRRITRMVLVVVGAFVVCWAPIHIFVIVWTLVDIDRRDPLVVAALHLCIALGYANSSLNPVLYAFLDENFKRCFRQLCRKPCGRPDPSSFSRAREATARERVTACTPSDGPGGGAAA
T5 sequence (P35372 whole entry): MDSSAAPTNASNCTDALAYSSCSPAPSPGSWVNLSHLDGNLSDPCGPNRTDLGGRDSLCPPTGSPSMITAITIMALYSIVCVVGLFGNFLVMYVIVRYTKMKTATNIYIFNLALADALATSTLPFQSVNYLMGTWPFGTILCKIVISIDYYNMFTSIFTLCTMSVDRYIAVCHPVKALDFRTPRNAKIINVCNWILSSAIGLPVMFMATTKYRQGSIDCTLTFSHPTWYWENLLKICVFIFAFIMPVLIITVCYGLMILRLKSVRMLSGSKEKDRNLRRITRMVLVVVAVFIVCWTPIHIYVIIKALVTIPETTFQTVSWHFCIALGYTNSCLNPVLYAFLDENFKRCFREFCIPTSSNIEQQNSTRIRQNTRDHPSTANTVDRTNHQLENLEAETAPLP
T8 sequence (P35372 whole entry, the tested form may be a part): as the sequence (P35372 whole entry) above

Row | Structure (SMILES) | Ki (μ-opioid receptor (MOR)) [nM] | Ki (δ-opioid receptor (DOR)) [nM] | Ki (κ-opioid receptor (KOR)) [nM] | EC50 (rat MOR) [nM] | MOR % Stimulation, [35S]GTPγS (rat MOR) | EC50 [1] | Emax [1] [%] | Emax [2] [%] | EC50 [2] | Emax [3] [%] | EC50 [3] | Bias Factor [4] | EC50 [4] [nM] | Emax [4] [%] | MOR EC50, [35S]GTPγS (rat MOR) | MOR activity type in the [35S]GTPγS assay (rat MOR) | EC50 (human KOR) [nM] | KOR % Stimulation, [35S]GTPγS (human KOR) | EC50 (rat DOR) | DOR % Stimulation, [35S]GTPγS (rat DOR) | other results
1 | N#CCN1CC[C@]23c4c5ccc(O)c4O[C@H]2C(=O)CCC3C1C5 (stereo partly drawn) [Compound 1a, 2-((7aR,12bS)-9-Hydroxy-7-oxo-1,2,4,4a,5,6,7,7a-octahydro-3H-4,12-methanobenzofuro[3,2-e]isoquinolin-3-yl)acetonitrile] | 4.51 ± 0.27 | 141 ± 2.8 | 90.3 ± 6.6 | 425 ± 133 | 47% and 47.1 ± 3.3% | 4.16 nM | 102 | 77 | 254 nM | 99.3 | 109 nM | 2.18 | 424 | 33.4 |  |  |  |  |  |  | 
2 | N#CCCCN1CCC23c4c5ccc(O)c4OC2C(=O)CCC3C1C5 (stereo not drawn) [Compound 1b] | 4.25 ± 0.29 | 72.2 ± 1.2 | 2.71 ± 0.22 |  |  |  |  |  |  |  |  |  |  |  | DNS | MOR antagonist | 24.3 ± 5 | 89.6 ± 0.9% |  |  | 
3 | O=C1CCC2C3Cc4ccc(O)c5c4[C@@]2(CCN3CCc2ccc([N+](=O)[O-])cc2)[C@H]1O5 (stereo partly drawn) [Compound 2a, (7aR,12bS)-9-Hydroxy-3-(4-nitrophenethyl)-2,3,4,4a,5,6-hexahydro-1H-4,12-methanobenzofuro[3,2-e]-isoquinolin-7(7aH)-one] | 0.52 ± 0.01 | 6.07 ± 0.86 | 56 ± 8.2 | 1.9 ± 0.5 | 26.6 ± 1.4% | 0.05 nM | 102 | 96 | 0.53 nM | 63 | 74.6 nM | 4.51 | 6.38 | 26.2 |  | potent MOR agonist |  |  | 227 ± 53 nM | 64.3 ± 3.3% | 
4 | O=C1CCC2C3Cc4ccc(O)c5c4C2(CCN3CCc2cccc([N+](=O)[O-])c2)C1O5 [Compound 2b, (7aR,12bS)-9-Hydroxy-3-(3-nitrophenethyl)-2,3,4,4a,5,6-hexahydro-1H-4,12-methanobenzofuro[3,2-e]-0isoquinolin-7(7aH)-one] | 5.88 ± 0.38 | 92.5 ± 7.3 | 65.4 ± 7.7 |  |  | 5.2 nM and 5.22 nM | 102 | 95.3 | 46.7 nM |  | > 10000 nM | 3.38 | 116 | 6 | DNS | MOR antagonist |  |  |  |  | 
5 | Cc1ccc(CCN2CC[C@]34c5c6ccc(O)c5O[C@H]3C(=O)CCC4C2C6)cc1 (stereo partly drawn) [Compound 2c, (7aR,12bS)-9-Hydroxy-3-(4-methylphenethyl)-2,3,4,4a,5,6-hexahydro-1H-4,12-methanobenzofuro[3,2-e]-isoquinolin-7(7aH)-one] | 0.86 ± 0.12 | 6.34 ± 0.65 | 44 ± 3.8 | 1.9 ± 0.7 | 55.6 ± 2.1% | 0.08 nM | 102 | 95 | 1 nM | 99.4 | 8.7 nM and 8.71 nM | 1.12 | 5.6 | 46.5 |  | potent partial MOR agonist | 38.1 ± 10.6 | 31.4 ± 4.2% | 23.1 ± 6.9 nM | 95% and 95.4 ± 3.8% | 
6 | COc1ccc(CCN2CC[C@]34c5c6ccc(O)c5O[C@H]3C(=O)CCC4C2C6)cc1 (stereo partly drawn) [Compound 2d, (7aR,12bS)-9-Hydroxy-3-(4-methoxyphenethyl)-2,3,4,4a,5,6-hexahydro-1H-4,12-methanobenzofuro[3,2-e]-isoquinolin-7(7aH)-one] | 0.67 ± 0.05 | 5.43 ± 0.47 | 26.3 ± 1.9 |  |  | 0.13 nM | 103 | 97.5 | 2.7 nM and 2.71 nM | 96.2 | 7.4 nM and 7.38 nM | 2.69 | 11.2 | 23 | DNS | MOR antagonist | 5.9 ± 1.7 | 21.8% and 21.8 ± 0.8% | 33.6 ± 6.4 nM | 49% and 48.9 ± 3.2% | 
7 | O=C1CCC2C3Cc4ccc(O)c5c4[C@@]2(CCN3CCc2ccc(F)cc2)[C@H]1O5 (stereo partly drawn) [Compound 2e, (7aR,12bS)-9-Hydroxy-3-(4-fluorophenethyl)-2,3,4,4a,5,6-hexahydro-1H-4,12-methanobenzofuro[3,2-e]-isoquinolin-7(7aH)-one] | 0.87 ± 0.1 | 13.4 ± 0.9 | 44.3 ± 6 | 2.5 ± 0.3 | 42.6 ± 2.9% | 0.17 nM | 101 | 98.1 | 2.58 nM | 80 | 19.9 nM | 1.39 | 15.5 | 45.8 |  | potent partial MOR agonist |  |  | 64.2 ± 9.9 nM |  | DOR activity type in the [35S]GTPγS assay (rat DOR): weak partial DOR agonist; KOR EC50, [35S]GTPγS (human KOR): DNS
8 | O=C1CCC2C3Cc4ccc(O)c5c4[C@@]2(CCN3CCc2cccc(F)c2)[C@H]1O5 (stereo partly drawn) [Compound 2f, (7aR,12bS)-9-Hydroxy-3-(3-fluorophenethyl)-2,3,4,4a,5,6-hexahydro-1H-4,12-methanobenzofuro[3,2-e]-isoquinolin-7(7aH)-one] | 0.49 ± 0.07 | 4.48 ± 0.43 | 30.2 ± 2.3 | 2.4 ± 0.3 | 56.8 ± 7.5% | 0.06 nM | 102 | 96.9 | 1.64 nM | 58 | 56.5 nM | 1.94 | 6.2 | 40.3 |  |  |  |  | 54.1 ± 4.7 nM | 86.7 ± 8.0% | KOR EC50, [35S]GTPγS (human KOR): DNS
9 | O=C1CCC2C3Cc4ccc(O)c5c4[C@@]2(CCN3CCc2ccccc2F)[C@H]1O5 (stereo partly drawn) [Compound 2g, (7aR,12bS)-9-Hydroxy-3-(2-fluorophenethyl)-2,3,4,4a,5,6-hexahydro-1H-4,12-methanobenzofuro[3,2-e]-isoquinolin-7(7aH)-one] | 0.32 ± 0.04 | 3.57 ± 0.49 | 23.2 ± 2.8 | 2.1 ± 0.7 | 100 ± 0.3% | 0.01 nM | 101 | 93.8 | 0.26 nM | 74 | 19.9 nM | 1.37 | 1.7 | 73.2 |  |  |  |  | 92.7 ± 17 nM | 83.0 ± 3.3% | KOR EC50, [35S]GTPγS (human KOR): DNS
10 | O=C1CCC2C3Cc4ccc(O)c5c4[C@@]2(CCN3CCc2ccc(C(F)(F)F)cc2)[C@H]1O5 (stereo partly drawn) [Compound 2h, (7aR,12bS)-9-Hydroxy-3-(4-(trifluoromethyl)phenethyl)-2,3,4,4a,5,6-hexahydro-1H-4,12-methanobenzofuro-[3,2-e]isoquinolin-7(7aH)-one] | 2.7 ± 0.17 | 16.4 ± 0.4 |  | 3.4 ± 1.2 | 72.2 ± 5.5% | 0.21 nM | 102 | 94.3 | 2.41 nM | 95.7 | 98.2 nM | 0.56 | 10.3 | 62.4 |  |  |  |  | 36 nM and 35.7 nM | 82.3 ± 2.3% | KOR Binding, exploratory binding assay (κ-opioid receptor (KOR); radioligand displacement at 100 nM): NT (NT = not tested—inactive (<50% activity at 100 nM concentration in exploratory binding assays (displaced less than half of radioligand))
